Activity calls are given as the source filed them. The rule behind the calls is not given here. Residues, ends and D or L forms follow the SMILES beside them. *: point of attachment. X1 = CCCCCCCCCCCCCCCC(=O)OCC(C*)OC(=O)CCCCCCCCCCCCCCC; Palmitoyl = CCCCCCCCCCCCCCCC(=O)*
Legend:
[1] = test system: Hepatitis C virus; assay: Antiviral activity against HCV infected human Huh7 replicon cells treated with drug-induced human PBMC supernatants assessed as viral levels by luciferase assay; assay type: functional, organism-based; settings: Hepacivirus hominis
[2] = test system: PBMC; assay: Induction of IFNalpha2a level in human PBMC assessed as drug level causing maximal cytokine induction after 24 hrs relative to control; assay type: functional
[3] = test system: PBMC; assay: (§1) Increase in IFNalpha level in human PBMC after 24 hrs relative to control; assay type: functional, cell-based
[4] = test system: Hepatitis C virus; assay: Antiviral activity against HCV infected human Huh7 replicon cells assessed as viral levels by luciferase assay; assay type: functional, organism-based; settings: Hepacivirus hominis; Huh-7
[5] = test system: PBMC; assay: Toxic induction of IL1-beta level in human PBMC assessed as drug level causing maximal cytokine induction after 24 hrs relative to control; assay type: toxicity, cell-based
[6] = test system: PBMC; assay: Toxic induction of IL6 level in human PBMC assessed as drug level causing maximal cytokine induction after 24 hrs relative to control; assay type: toxicity, cell-based
[7] = test system: Hepatitis C virus; assay: Antiviral activity against HCV infected human Huh7 replicon cells treated with 200 nM drug-induced human PBMC supernatants assessed as viral levels in presence of type I IFN receptor antibody by luciferase assay; assay type: functional, organism-based; settings: Hepacivirus hominis
[8] = test system: PBMC; assay: Increase in 2',5'-oligoadenylate synthase level in human PBMC after 24 hrs by PCR method relative to control; assay type: functional, cell-based
[9] = test system: PBMC; assay: Toxic induction of TNFalpha level in human PBMC assessed as drug level causing maximal cytokine induction after 24 hrs relative to control; assay type: toxicity, cell-based
[10] = test system: Hepatitis C virus; assay: Antiviral activity against HCV infected human Huh7 replicon cells treated with 3 uM drug-induced human PBMC supernatants assessed as viral levels in presence of type I IFN receptor antibody by luciferase assay; assay type: functional, organism-based; settings: Hepacivirus hominis
[11] = test system: Hepatitis C virus; assay: Antiviral activity against HCV infected human Huh7 replicon cells treated with 20 uM drug-induced human PBMC supernatants assessed as viral levels in presence of type I IFN receptor antibody by luciferase assay; assay type: functional, organism-based; settings: Hepacivirus hominis
[12] = test system: PBMC; assay: as §1; assay type: functional, cell-based; remark: listed apart in the source
[13] = test system: PBMC; assay: Toxicity assessed as increase in IL6 level in human PBMC after 24 hrs relative to control; assay type: functional, cell-based
[14] = test system: Hepatitis C virus; assay: Antiviral activity against HCV infected human Huh7 replicon cells treated with 100 nM drug-induced human PBMC supernatants assessed as viral levels in presence of type I IFN receptor antibody by luciferase assay; assay type: functional, organism-based; settings: Hepacivirus hominis
[15] = test system: Hepatitis C virus; assay: Antiviral activity against HCV infected human Huh7 replicon cells treated for 48 hrs with drug-induced single donor human PBMC supernatants assessed as viral levels by luciferase assay; assay type: functional, organism-based, Hepacivirus hominis
[16] = test system: Hepatitis C virus; assay: Antiviral activity against HCV infected human Huh7 replicon cells treated for 48 hrs with drug-induced mixed donor human PBMC supernatants assessed as viral levels by luciferase assay; assay type: functional, organism-based, Hepacivirus hominis
[17] = test system: PBMC; assay: Increase in 2',5'-oligoadenylate synthase level in human PBMC after 24 hrs relative to control; assay type: functional, cell-based
[18] = test system: Hepatitis C virus; assay: Antiviral activity against HCV infected human Huh7 replicon cells treated for 24 hrs with drug-induced human PBMC supernatants assessed as viral levels by luciferase assay; assay type: functional, organism-based; settings: Hepacivirus hominis
[19] = test system: PBMC; assay: Toxicity assessed as increase in TNFalpha level in human PBMC after 6 hrs relative to control; assay type: cell-based

SMILES | Activity [1] | Activity [2] | Activity [3] | Activity [4] | Activity [5] | Activity [6] | Activity [7] | Activity [8] | Activity [9] | Activity [10] | Activity [11] | Activity [12] | Activity [13] | Activity [14] | EC50 [15] [nM] | EC50 [16] [nM] | Activity [17] | Activity [18] | fold change (FC) [19]
COCCOc1nc(N)c2[nH]c(=O)n(Cc3ccccc3)c2n1 | Active | 0.1 µM | Dose-dependent effect | inactive | 1 µM | 1 µM | inactive | Dose-dependent effect | 1 µM |  |  |  |  |  |  |  |  |  | 
CCCc1nc2c(N)nc3ccccc3c2s1 | Active | 10 µM | Dose-dependent effect | inactive | 3.3 µM | 3.3 µM |  | Dose-dependent effect | 10 µM | inactive |  |  |  |  |  |  |  |  | 
Cc1cn([C@H]2C[C@H](OP(=O)(O)OC[C@H]3O[C@@H](n4cnc5c(=O)[nH]c(N)nc54)[C@H](O)[C@@H]3OP(=O)(O)OC[C@H]3O[C@@H](n4cc(C)c(=O)[nH]c4=O)C[C@@H]3OP(=O)(O)OC[C@H]3O[C@@H](n4cc(C)c(=O)[nH]c4=O)C[C@@H]3OP(=O)(O)OC[C@H]3O[C@@H](n4cc(C)c(=O)[nH]c4=O)C[C@@H]3OP(=O)(O)OC[C@H]3O[C@@H](n4cc(C)c(=O)[nH]c4=O)C[C@@H]3OP(=O)(O)OC[C@H]3O[C@@H](n4cnc5c(=O)[nH]c(N)nc54)[C@H](O)[C@@H]3OP(=O)(S)OC[C@H]3O[C@@H](n4ccc(N)nc4=O)[C@H](O)[C@@H]3OP(=O)(O)OC[C@H]3O[C@@H](n4cc(C)c(=O)[nH]c4=O)C[C@@H]3OP(=O)(O)OC[C@H]3O[C@@H](n4cc(C)c(=O)[nH]c4=O)C[C@@H]3O)[C@@H](COP(=O)(O)OC[C@H]3O[C@@H](n4cnc5c(=O)[nH]c(N)nc54)[C@H](O)[C@@H]3OP(O)(=S)OC[C@H]3O[C@@H](n4ccc(N)nc4=O)[C@H](O)[C@@H]3OP(=O)(O)OC[C@H]3O[C@@H](n4cc(C)c(=O)[nH]c4=O)C[C@@H]3OP(=O)(O)OC[C@H]3O[C@@H](n4cnc5c(=O)[nH]c(N)nc54)[C@H](O)[C@@H]3OP(=O)(O)OC[C@H]3O[C@@H](n4cc(C)c(=O)[nH]c4=O)C[C@@H]3OP(=O)(O)OC[C@H]3O[C@@H](n4cc(C)c(=O)[nH]c4=O)C[C@@H]3OP(=O)(O)OC[C@H]3O[C@@H](n4cc(C)c(=O)[nH]c4=O)C[C@@H]3OP(=O)(O)OC[C@H]3O[C@@H](n4cc(C)c(=O)[nH]c4=O)C[C@@H]3OP(=O)(O)OC[C@H]3O[C@@H](n4cnc5c(=O)[nH]c(N)nc54)[C@H](O)[C@@H]3OP(O)(=S)OC[C@H]3O[C@@H](n4ccc(N)nc4=O)[C@H](O)[C@@H]3OP(=O)(O)OC[C@H]3O[C@@H](n4cc(C)c(=O)[nH]c4=O)C[C@@H]3OP(=O)(O)OC[C@H]3O[C@@H](n4cc(C)c(=O)[nH]c4=O)C[C@@H]3O)O2)c(=O)[nH]c1=O (some centres not stated) | Active | 0.2 µM | Dose-dependent effect | inactive | 5 µM | 0.2 µM |  | Dose-dependent effect | 5 µM |  |  |  |  |  |  |  |  |  | 
CCCCCCCCCCCCCCCC(=O)N[C@@H](CSCC(COC(=O)CCCCCCCCCCCCCCC)OC(=O)CCCCCCCCCCCCCCC)C(=O)N[C@@H](CO)C(=O)N[C@@H](CCCCN)C(=O)N[C@@H](CCCCN)C(=O)N[C@@H](CCCCN)C(=O)N[C@@H](CCCCN)C(=O)O (some centres not stated) (Palmitoyl-C(X1)SKKKK-OH) | Active | 0.3 µM |  | inactive | 1 µM | 1 µM |  |  | 0.1 µM |  |  |  |  |  |  |  |  |  | 
CC(C)Cn1cnc2c(N)nc3ccccc3c21 [IMIQUIMOD] | Active | 1 µg/mL | Dose-dependent effect | inactive | 0.1 µg/mL | 1 µg/mL |  | Dose-dependent effect | 1 µg/mL |  | inactive |  |  |  |  |  |  |  | 
CCOCc1nc2c(N)nc3ccccc3c2n1CC(C)(C)O [RESIQUIMOD] | Active | 0.1 µM | Dose-dependent effect | inactive | 1 µM | 1 µM |  | Dose-dependent effect | 1 µM |  |  | Active | Active | inactive | 26.5 | 24 | Active | Active | 2.5

Source: ChEMBL document CHEMBL1155176, “Investigating Toll-like receptor agonists for potential to treat hepatitis C virus infection” (Antimicrob Agents Chemother, 2007)
